Reference: US6294152A, “Iron(III) complexes as contrast agents for image enhancement in magnetic resonance imaging” (The University of Toledo, priority 1999, dated 2001)
Where two headings read alike, the source gives them in different places.

Columns and labels:
[1] = Relaxivity in Water and Plasma; assay type: physicochemical; details: 20 MHz, 37° C; for relaxivity r1 (plasma): in plasma; for relaxivity r1 (H2O): in water
Experimental: Relaxivity values (mM^-1 s^-1) have been determined in water and in plasma at 20 MHz and 37° C.

[2] = system: mice; test: Toxicity Studies in Mice, LD50 i.v.; assay type: in vivo
From the text: The LD50 value of the tris(ligand) iron(III) complex of ligand IX, Fe-DIOLMAL, has been determined i.v. in mice and found to be ca. 20.0 mmol/kg bw.

[3] = system: mice; details: metal chloride salts in aqueous solution, i.p.; cited from earlier work

Molecule | relaxivity r1 (plasma) [1] [mM⁻¹ s⁻¹] | relaxivity r1 (H2O) [1] [mM⁻¹ s⁻¹] | LD50 [2] | LD50 [3] [mmol/kg]
Cc1c([O-])c(=O)ccn1CCC(=O)O.Cc1c([O-])c(=O)ccn1CCC(=O)O.Cc1c([O-])c(=O)ccn1CCC(=O)O.[Fe+3] [Fe-BETALA] | 2.1 | 1.8 |  | 
Cc1c([O-])c(=O)ccn1CCO.Cc1c([O-])c(=O)ccn1CCO.Cc1c([O-])c(=O)ccn1CCO.[Fe+3] [Fe-ETOHMAL] | 2.0 | 1.7 | ca. 7.5 mmol/kg bw | 
[Gd] [gadolinium] |  |  |  | 1.4
[Mn+2] [manganese] |  |  |  | 1.5
iron |  |  |  | 1.6
